From patent US9758492B2, “IDO inhibitors” (Bristol-Myers Squibb Company, priority 2013, dated 2017) come the findings set out here.

A word on the IC50: it is the concentration at which inhibition is half-maximal.

Chain of IDO (P14902 whole entry): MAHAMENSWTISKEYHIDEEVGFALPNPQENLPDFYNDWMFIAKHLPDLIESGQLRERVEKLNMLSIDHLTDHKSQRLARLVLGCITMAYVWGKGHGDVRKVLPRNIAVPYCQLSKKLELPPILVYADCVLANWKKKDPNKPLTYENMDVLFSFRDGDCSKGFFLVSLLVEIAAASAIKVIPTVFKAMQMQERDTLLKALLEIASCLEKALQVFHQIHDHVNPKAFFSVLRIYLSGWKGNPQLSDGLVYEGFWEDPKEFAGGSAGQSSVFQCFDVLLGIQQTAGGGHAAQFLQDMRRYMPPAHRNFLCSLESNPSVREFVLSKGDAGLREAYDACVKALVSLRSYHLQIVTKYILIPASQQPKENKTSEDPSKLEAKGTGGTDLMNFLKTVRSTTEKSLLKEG

The assay concerns the target IDO (Homo sapiens, UniProt P14902). Nature of the assay: LLE_IDO_ABS_DR (IDO assay).
Turning to `Cc1ccc(NC(=O)Nc2cc(-c3ccccc3-c3nnn[nH]3)ccc2N(CCC(C)C(F)(F)F)C2CCCCC2)cc1` (stereo not shown) [Example 190, 1-(4-(cyclohexyl(4,4,4-trifluoro-3-methylbutyl)amino)-2′-(1H-tetrazol-5-yl)-[1,1′-biphenyl]-3-yl)-3-(p-tolyl)urea], inhibition was half-maximal at 80 nM (IC50).

In turn, `COCCN(Cc1ccc(Cl)cc1)c1ccc(-c2ccccc2-c2nnn[nH]2)cc1NC(=O)Nc1ccc(C)cc1` [Example 191, 1-(4-((4-chlorobenzyl)(2-methoxyethyl)amino)-2′-(1H-tetrazol-5-yl)-[1,1′-biphenyl]-3-yl)-3-(p-tolyl)urea] gave an IC50 of 5.79 nM. Under `COCCN(Cc1ccc(Cl)cc1)c1ccc(-c2ccccc2C(=O)O)cc1NC(=O)Nc1ccc(C)cc1` [Example 192, 4′-((4-chlorobenzyl)(2-methoxyethyl)amino)-3′-(3-(p-tolyl)ureido)-[1,1′-biphenyl]-2-carboxylic acid] stands 7.82 nM.

`Cc1ccc(NC(=O)Nc2cc(-c3ccccc3-c3nnn[nH]3)ccc2N(CC(F)F)C2CCCCC2)cc1` [Example 194, 1-(4-(cyclohexyl(2,2-difluoroethyl)amino)-2′-(1H-tetrazol-5-yl)-[1,1′-biphenyl]-3-yl)-3-(p-tolyl)urea]: 4.74 nM corresponded to half-maximal inhibition (IC50). Under `Cc1ccc(NC(=O)Nc2cc(-c3ccccc3-c3nnn[nH]3)ccc2N(CCC(F)(F)F)C2CCCCC2)cc1` [Example 195, 1-(4-(cyclohexyl(3,3,3-trifluoropropyl)amino)-2′-(1H-tetrazol-5-yl)-[1,1′-biphenyl]-3-yl)-3-(p-tolyl)urea] stands 4.79 nM; under `Cc1ccc(NC(=O)Nc2cc(-c3ccccc3C(=O)O)ccc2N(CC(F)F)C2CCCCC2)cc1` [Example 196, 4′-(cyclohexyl(2,2-difluoroethyl)amino)-3′-(3-(p-tolyl)ureido)-[1,1′-biphenyl]-2-carboxylic acid], 20 nM. Under `Cc1ccc(NC(=O)Nc2cc(-c3ccccc3C(=O)O)ccc2N(CCC(F)(F)F)C2CCCCC2)cc1` [Example 197, 4′-(cyclohexyl(3,3,3-trifluoropropyl)amino)-3′-(3-(p-tolyl)ureido)-[1,1′-biphenyl]-2-carboxylic acid] stands 10 nM; under `Cc1ccc(NC(=O)Nc2cc(-c3ccccc3C(=O)O)ccc2N(CCC(F)(F)F)CC(C)C)cc1` [Example 198, 4′-(isobutyl(3,3,3-trifluoropropyl)amino)-3′-(3-(p-tolyl)ureido)-[1,1′-biphenyl]-2-carboxylic acid], 210 nM; under `Cc1ccc(NC(=O)Nc2cc(-c3ccccc3-c3nnn[nH]3)ccc2N(CCC(F)(F)F)CC(C)C)cc1` [Example 199, 1-(4-(isobutyl(3,3,3-trifluoropropyl)amino)-2′-(1H-tetrazol-5-yl)-[1,1′-biphenyl]-3-yl)-3-(p-tolyl)urea], 60 nM. As to `Cc1ccc(NC(=O)Nc2cc(-c3cc(F)ccc3C(=O)O)ccc2N(CCC(F)(F)F)CC(C)C)cc1` [Example 200, 5-fluoro-4′-(isobutyl (3,3,3-trifluoropropyl)amino)-3′-(3-(p-tolyl)ureido)-[1,1′-biphenyl]-2-carboxylic acid], the IC50 is 110 nM.

In turn, `CC(C)CN(CCC(C)C(F)(F)F)c1ccc(-c2ccccc2-c2nnn[nH]2)cc1NC(=O)Nc1ccccc1F` (stereo not shown) [Example 201, 1-(2-fluorophenyl)-3-(4-(isobutyl(4,4,4-trifluoro-3-methylbutyl)amino)-2′-(1H-tetrazol-5-yl)-[1,1′-biphenyl]-3-yl)urea] had an IC50 of 4.46 nM. This IC50 is about 25-fold lower than that of the compound before. Under `Cc1ccc(NC(=O)Nc2cc(-c3ccccc3-c3nnn[nH]3)ccc2N(CCC(C)C(F)(F)F)CC(C)C)cc1` (stereo not shown) [Example 202, 1-(4-(isobutyl(4,4,4-trifluoro-3-methylbutyl)amino)-2′-(1H-tetrazol-5-yl)-[1,1′-biphenyl]-3-yl)-3-(p-tolyl)urea] stands 10 nM.

`Cc1ccc(NC(=O)Nc2cc(-c3cc(F)ccc3C(=O)O)ccc2N(CCC(C)C(F)(F)F)CC(C)C)cc1` (stereo not shown) [Example 203, 5-fluoro-4′-(isobutyl (4,4,4-trifluoro-3-methylbutyl)amino)-3′-(3-(p-tolyl)ureido)-[1,1′-biphenyl]-2-carboxylic acid]: the IC50 amounted to 7.31 nM. With `CC(C)CN(CCC(C)C(F)(F)F)c1ccc(-c2cc(F)ccc2C(=O)O)cc1NC(=O)Nc1ccccc1F` (stereo not shown) [Example 204, 5-fluoro-3′-(3-(2-fluorophenyl)ureido)-4′-(isobutyl(4,4,4-trifluoro-3-methylbutyl)amino)-[1,1′-biphenyl]-2-carboxylic acid] the figure was 5.26 nM; with `Cc1ccc(NC(=O)Nc2cc(-c3ccccc3C(=O)O)ccc2N(CCC(C)C(F)(F)F)CC(C)C)cc1` (stereo not shown) [Example 205, 4′-(isobutyl (4,4,4-trifluoro-3-methylbutyl)amino)-3′-(3-(p-tolyl)ureido)-[1,1′-biphenyl]-2-carboxylic acid], 20 nM; with `Cc1ccc(NC(=O)Nc2cc(-c3ccccc3C(=O)O)ccc2Nc2ccccc2C(C)(C)C)cc1` [Example 206, 4′((2-(tert-butyl)phenyl)amino)-3′-(3-(p-tolyl)ureido)-[1,1′-biphenyl]-2-carboxylic acid], 600 nM. As for `CN(c1ccc(-c2ccccc2-c2nnn[nH]2)cc1NC(=O)Nc1ccccc1F)c1ccccc1C(C)(C)C` [Example 207, 1-(4-((2-(tert-butyl)phenyl) (methyl)amino)-2′-(1H-tetrazol-5-yl)-[1,1′-biphenyl]-3-yl)-3-(2-fluorophenyl)urea], the IC50 was found to be 130 nM. With `Cc1ccc(NC(=O)Nc2cc(-c3ccccc3-c3nnn[nH]3)ccc2Nc2ccccc2C(C)(C)C)cc1` [Example 208, 1-(4-((2-(tert-butyl)phenyl)amino)-2′-(1H-tetrazol-5-yl)-[1,1′-biphenyl]-3-yl)-3-(p-tolyl)urea] the figure was 50 nM; with `COc1ccc(-c2ccc(N(C)c3ccccc3C(C)(C)C)c(NC(=O)Nc3ccccc3F)c2)cc1C(=O)O` [Example 209, 4′-((2-(tert-butyl)phenyl) (methyl)amino)-3′-(3-(2-fluorophenyl)ureido)-4-methoxy-[1,1′-biphenyl]-3-carboxylic acid], 560 nM. With `Cc1ccc(NC(=O)Nc2cc(-c3ccccc3-c3nnn[nH]3)ccc2N(C)c2ccccc2C(C)(C)C)cc1` [Example 210, 1-(4-((2-(tert-butyl)phenyl)(methyl)amino)-2′-(1H-tetrazol-5-yl)-[1,1′-biphenyl]-3-yl)-3-(p-tolyl)urea], the IC50 was 210 nM.

Regarding `Cc1ccc(NC(=O)Nc2cc(-c3ccccc3C(=O)O)c(F)cc2N(CC(C)C)C2CCCCC2)cc1` [Example 225], half-maximal inhibition (IC50) was put at 2.52 nM.

In turn, `CC(C)CN(c1cc(F)c(-c2cc(F)ccc2C(=O)O)cc1NC(=O)Nc1ccc(F)cc1F)C1CCCCC1` [Example 226, 4′-(cyclohexyl(isobutyl)ami-no)-5′-(3-(2,4-difluorophenyl)ureido)-2′,5-difluoro-[1,1′-biphenyl]-2-carboxylic acid] returned an IC50 of 2.67 nM.

For `Cc1ccc(NC(=O)Nc2cc(-c3ccccc3-c3nnn[nH]3)c(F)cc2N(CC(C)C)C2CCCCC2)cc1` [Example 227, 1-(4-(cyclohexyl(isobutyl)ami-no)-6-fluoro-2′-(1H-tetrazol-5-yl)biphenyl-3-yl)-3-p-tolylurea], the IC50 came to 2.91 nM. Under `CC(C)CN(c1cc(F)c(-c2ccccc2C(=O)O)cc1NC(=O)Nc1ccccc1F)C1CCCCC1` [Example 228, 4′-(cyclohexyl(isobutyl)amio-no)-2′-fluoro-5′-(3-(2-fluorophenyl)ureido) biphenyl-2-carboxylic acid] stands 1.74 nM; under `CC(C)CN(c1cc(F)c(-c2cc(F)ccc2C(=O)O)cc1NC(=O)Nc1ccccc1F)C1CCCCC1` [Example 229, 4′-(cyclohexyl(isobutyl)ami-no)-2′,5-difluoro-5′-(3-(2-fluorophenyl)ureido) biphenyl-2-carboxylic acid], 2.56 nM.

Turning to `CC(C)CN(c1cc(F)c(-c2ccccc2C(=O)O)cc1NC(=O)Nc1ccc(F)cc1F)C1CCCCC1` [Example 230, 4′-(cyclohexyl(isobutyl)ami-no)-5′-(3-(2,4-difluorophenyl)ureido)-2′-fluorobiphenyl-2-carboxylic acid], it took 2.14 nM to reach half-maximal inhibition (IC50). The IC50 values of the last two compounds are within 1.5-fold of each other.

As to `Cc1ccc(NC(=O)Nc2cc(-c3ccccc3C(=O)NS(C)(=O)=O)ccc2N(CC(C)C)CC(C)C)cc1` [Example 232, 4′-(Diisobutylamino)-N-(methylsulfonyl)-3′-(3-(p-tolyl)ureido)-[1,1′-biphenyl]-2-carboxamide], 660 nM corresponded to half-maximal inhibition (IC50). With `Cc1ccc(NC(=O)Nc2cc(-c3ccccc3C(=O)NS(=O)(=O)C(F)(F)F)ccc2N(CC(C)C)CC(C)C)cc1` [Example 234] the figure was 9370 nM. Under `Cc1ccc(NC(=O)Nc2cc(-c3ccccc3-c3nnn[nH]3)ccc2N2CC(C)CC(C)C2)cc1` (stereo not shown) [Example 235, 1-(4-(3,5-Dimethylpiperidin-1-yl)-2′-(1H-tetrazol-5-yl)-[1,1′-biphenyl]-3-yl)-3-(p-tolyl)urea] stands 790 nM; under `CC1CC(C)CN(c2ccc(-c3ccccc3-c3nnn[nH]3)cc2NC(=O)Nc2ccc(F)cc2)C1` (stereo not shown) [Example 236], 2140 nM. With `CC1CC(C)CN(c2ccc(-c3ccccc3-c3nnn[nH]3)cc2NC(=O)Nc2ccccc2F)C1` (stereo not shown) [Example 237] the figure was 1290 nM; with `CC(C)CN(CC(C)C)c1ccc(-c2ccccc2-c2nnn[nH]2)cc1NC(=O)Nc1ccccn1` [Example 238, 1-(4-(Diisobutylamino)-2′-(1H-tetrazol-5-yl)-[1,1′-biphenyl]-3-yl)-3-(pyridin-2-yl)urea], 750 nM; with `CC(C)CN(CC(C)C)c1ccc(-c2ccccc2-c2nnn[nH]2)cc1NC(=O)Nc1ncccn1` [Example 239, 1-(4-(Diisobutylamino)-2′-(1H-tetrazol-5-yl)-[1,1′-biphenyl]-3-yl)-3-(pyrimidin-2-yl)urea], 3860 nM. `CC(C)CN(CC(C)C)c1ccc(-c2ccccc2-c2nn[nH]n2)cc1NC(=O)NC(C)(C)Cc1ccc(F)cc1` [Example 240, 1-(4-(diisobutylamino)-2′-(2H-tetrazol-5-yl)-[1,1′-biphenyl]-3-yl)-3-(1-(4-fluorophenyl)-2-methylpropan-2-yl)urea] registered an IC50 of 2230 nM.
